Target: human CTPS1 (Homo sapiens (Human), UniProt P17812)
Test: hCTPS1 biochemical assay (ADP-Glo)
Conditions: hCTPS1 25 nM, ATP 120 uM, UTP 160 uM, GTP 60 uM, L-Glutamine 100 uM, 25 degrees C

human CTPS1, sequence (P17812 whole entry): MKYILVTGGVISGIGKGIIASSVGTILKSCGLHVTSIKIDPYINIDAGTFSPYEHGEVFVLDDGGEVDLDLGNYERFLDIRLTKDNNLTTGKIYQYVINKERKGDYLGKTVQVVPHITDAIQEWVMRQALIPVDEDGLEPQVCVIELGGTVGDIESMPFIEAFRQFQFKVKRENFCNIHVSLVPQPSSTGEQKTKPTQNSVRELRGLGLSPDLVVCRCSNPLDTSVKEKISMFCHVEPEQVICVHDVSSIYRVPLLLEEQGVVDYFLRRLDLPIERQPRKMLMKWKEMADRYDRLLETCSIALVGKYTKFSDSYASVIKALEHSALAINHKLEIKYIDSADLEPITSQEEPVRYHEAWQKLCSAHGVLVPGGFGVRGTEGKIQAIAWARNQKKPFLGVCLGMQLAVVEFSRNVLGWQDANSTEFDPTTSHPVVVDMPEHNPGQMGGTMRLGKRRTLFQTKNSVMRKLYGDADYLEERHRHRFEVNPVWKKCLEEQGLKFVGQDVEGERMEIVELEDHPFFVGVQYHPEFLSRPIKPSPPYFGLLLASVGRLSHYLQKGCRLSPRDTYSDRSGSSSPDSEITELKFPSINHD

IC50	SMILES
< 100 nM	CCOc1cncc(-c2cnc(C(=O)N[C@H](CN3CCOCC3)c3cc(NS(=O)(=O)C4CC4)ccn3)s2)n1 (single isomer, unassigned) [I-236]
≥ 1000 nM	COC1CN(c2cncc(-c3ccc(C(=O)NCc4cc(NS(=O)(=O)C5CC5)ccn4)cc3)n2)C1 [I-46]
< 100 nM	CCOc1cncc(-c2cnc(C(=O)NCc3c(F)ccc(NS(=O)(=O)C4CC4)c3F)s2)n1 [I-248, N-[(3-cyclopropanesulfonamido-2,6-difluorophenyl)methyl]-5-(6-ethoxypyrazin-2-yl)-1,3-thiazole-2-carboxamide]
< 100 nM	CCOc1cncc(-c2cnc(C(=O)N[C@@H](CCOC)c3cc(NS(=O)(=O)C4CC4)ccn3)s2)n1 [I-183, (S)—N-(1-(4-(cyclopropanesulfonamido)pyridin-2-yl)-3-methoxypropyl)-5-(6-ethoxypyrazin-2-yl)thiazole-2-carboxamide]
< 100 nM	CCOc1cncc(-c2cnc(C(=O)N3CCC[C@@H]3c3cccc(NS(=O)(=O)C(F)F)c3)s2)n1 [I-70, N-[3-[(2R)-1-[5-(6-ethoxypyrazin-2-yl)-1,3-thiazole-2-carbonyl]pyrrolidin-2-yl]phenyl]-1,1-difluoromethanesulfonamide]
< 100 nM	CCOc1cncc(-c2cnc(C(=O)N3CCC[C@H]3c3ccnc(NS(=O)(=O)C4CC4)n3)s2)n1 [I-271, N-[4-[(2S)-1-[5-(6-ethoxypyrazin-2-yl)-1,3-thiazole-2-carbonyl]pyrrolidin-2-yl]pyrimidin-2-yl]cyclopropanesulfonamide]
100 to 1000 nM	CCOc1cncc(-c2ncc(C(=O)N3CCC[C@@H]3c3cc(NS(=O)(=O)C4CC4)ccn3)s2)n1 [I-76, N-[2-[(2R)-1-[2-(6-ethoxypyrazin-2-yl)-1,3-thiazole-5-carbonyl]pyrrolidin-2-yl]pyridin-4-yl]cyclopropanesulfonamide]
< 100 nM	CCOc1cncc(-c2sc(C(=O)NC(CC)c3cc(NS(=O)(=O)C4CC4)ccn3)nc2C)n1 (stereo not shown) [I-227]
< 100 nM	O=C(NCc1cc(NS(=O)(=O)C2CC2)ccn1)c1ncc(-c2cncc(Cl)c2)s1 [I-252]
< 100 nM	CCOc1cncc(-c2cnc(C(=O)NC3(c4cccc(NS(=O)(=O)C(F)F)c4)CC3)s2)n1 [I-69, N-[1-[3-(difluoromethanesulfonamido)phenyl]cyclopropyl]-5-(6-ethoxypyrazin-2-yl)-1,3-thiazole-2-carboxamide]
< 100 nM	CCOc1cncc(-c2cnc(C(=O)N[C@@H](CN3CCN(C4CC4)CC3)c3cc(NS(=O)(=O)C4CC4)ccn3)s2)n1 (single isomer, unassigned) [I-119]
< 100 nM	CCOC[C@H](NC(=O)c1ncc(-c2cncc(OCC)n2)s1)c1cc(NS(=O)(=O)C2CC2)ccn1 [I-96, (R)—N-(1-(4-(cyclopropanesulfonamido)pyridin-2-yl)-2-ethoxyethyl)-5-(6-ethoxypyrazin-2-yl)thiazole-2-carboxamide]
< 100 nM	CCOc1cncc(-c2cnc(C(=O)N[C@H](CN3C[C@@H]4C[C@H]3CO4)c3cc(NS(=O)(=O)C4CC4)ccn3)s2)n1 (single isomer, unassigned) [I-101]
< 100 nM	CCOc1cncc(-c2cnc(C(=O)N[C@@H](c3cc(NS(=O)(=O)C4CC4)ccn3)C3CCN(C)CC3)s2)n1 [I-147, (R)—N-((4-(cyclopropanesulfonamido)pyridin-2-yl)(1-methylpiperidin-4-yl)methyl)-5-(6-ethoxypyrazin-2-yl)thiazole-2-carboxamide]
< 100 nM	CCOc1cncc(-c2cnc(C(=O)NC(CCN(C)C)c3cccc(NS(=O)(=O)C4CC4)c3)s2)n1 (stereo not shown) [I-152, N-(1-(3-(cyclopropanesulfonamido)phenyl)-3-(dimethylamino)propyl)-5-(6-ethoxypyrazin-2-yl)thiazole-2-carboxamide]
< 100 nM	CCOc1cncc(-c2cnc(C(=O)N[C@H](CN3CCCCC3)c3cc(NS(=O)(=O)C4CC4)ccn3)s2)n1 (single isomer, unassigned) [I-213]
< 100 nM	CCOc1cncc(-c2cnc(C(=O)N[C@@H](CN3CC(F)C3)c3cc(NS(=O)(=O)C4CC4)ccn3)s2)n1 (single isomer, unassigned) [I-203]
≥ 1000 nM	CCOc1cncc(-c2cnc(C(=O)NCc3cc(F)c(F)c(NS(=O)(=O)C4CC4)c3)s2)n1 [I-255, N-[(3-cyclopropanesulfonamido-4,5-difluorophenyl)methyl]-5-(6-ethoxypyrazin-2-yl)-1,3-thiazole-2-carboxamide]
< 100 nM	CCOc1cncc(-c2cnc(C(=O)NC(CN3CCN(C)CC3)c3cc(NS(=O)(=O)C4CC4)ccn3)s2)n1 (stereo not shown) [I-207]
< 100 nM	O=C(NCc1cc(NS(=O)(=O)C2CC2)ccn1)c1ncc(-c2cnn3ccc(C(F)(F)F)cc23)s1 [I-177]

IC50	SMILES
< 100 nM	CCOc1cncc(-c2cnc(C(=O)N[C@@H](C)c3cccc(NS(=O)(=O)C(F)F)c3)s2)n1 [I-273, N-[(1S)-1-[3-(difluoromethanesulfonamido)phenyl]ethyl]-5-(6-ethoxypyrazin-2-yl)-1,3-thiazole-2-carboxamide]
< 100 nM	CCOc1cncc(-c2cnc(C(=O)N[C@H](CN3[C@H](C)COC[C@@H]3C)c3cc(NS(=O)(=O)C4CC4)ccn3)s2)n1 (single isomer, unassigned) [I-110]
< 100 nM	CCOc1cncc(-c2ccc(C(=O)NC3(c4cccc(NS(=O)(=O)C(F)F)c4)CC3)cc2)n1 [I-266, N-(1-(3-((difluoromethyl)sulfonamido)phenyl)cyclopropyl)-4-(6-ethoxypyrazin-2-yl)benzamide]
< 100 nM	CCOc1cncc(-c2cnc(C(=O)N[C@H](CCN3CCOCC3)c3cc(NS(=O)(=O)C4CC4)ccn3)s2)n1 [I-164, (R)—N-(1-(4-(cyclopropanesulfonamido)pyridin-2-yl)-3-morpholinopropyl)-5-(6-ethoxypyrazin-2-yl)thiazole-2-carboxamide]
≥ 1000 nM	O=C(NC1(c2csc(NS(=O)(=O)C3CC3)n2)CC1)c1ccc2cnccc2c1 [I-4, N-(1-(2-(cyclopropanesulfonamido)thiazol-4-yl)cyclopropyl)isoquinoline-6-carboxamide]
< 100 nM	CCOc1cncc(-c2cnc(C(=O)N[C@@H](C[C@H]3CCCCN3C)c3cc(NS(=O)(=O)C4CC4)ccn3)s2)n1 [I-142, N—((S)-1-(4-(cyclopropanesulfonamido)pyridin-2-yl)-2-((R)-1-methylpiperidin-2-yl)ethyl)-5-(6-ethoxypyrazin-2-yl)thiazole-2-carboxamide]
< 100 nM	CCOc1cncc(-c2ccc(C(=O)NCc3cc(NS(=O)(=O)C4CC4)cnn3)cc2)n1 [I-52, N-[(5-cyclopropanesulfonamidopyridazin-3-yl)methyl]-4-(6-ethoxypyrazin-2-yl) benzamide]
< 100 nM	CCOc1cncc(-c2cnc(C(=O)N[C@H](CN3CCN(C)CC3)c3cc(NS(=O)(=O)C4CC4)ccn3)s2)n1 (single isomer, unassigned) [I-192]
≥ 1000 nM	O=C(NC1(c2csc(NS(=O)(=O)C3CC3)n2)CC1)c1ccc(-c2cnc3n2CCCC3)cc1 [I-260, N-[1-(2-cyclopropanesulfonamido-1,3-thiazol-4-yl)cyclopropyl]-4-[5H, 6H, 7H, 8H-imidazo[1,2-a]pyridin-3-yl]benzamide]
< 100 nM	CCOc1cncc(-c2cnc(C(=O)N[C@H](CN3CCOCC3(C)C)c3cc(NS(=O)(=O)C4CC4)ccn3)s2)n1 (single isomer, unassigned) [I-117]
≥ 1000 nM	O=C(NC1(c2csc(NS(=O)(=O)C3CC3)n2)CC1)c1ccc2cccnc2c1 [I-10, N-(1-(2-(cyclopropanesulfonamido)thiazol-4-yl)cyclopropyl)quinoline-7-carboxamide]
< 100 nM	CCOc1cncc(-c2cnc(C(=O)N[C@H](c3cc(NS(=O)(=O)C4CC4)ccn3)C3CCN(C)CC3)s2)n1 [I-148, (S)—N-((4-(cyclopropanesulfonamido)pyridin-2-yl)(1-methylpiperidin-4-yl)methyl)-5-(6-ethoxypyrazin-2-yl)thiazole-2-carboxamide]
< 100 nM	CCOc1cncc(-c2cnc(C(=O)NC(CCOC)c3cc(NS(=O)(=O)C4CC4)ccn3)s2)n1 (stereo not shown) [I-186]
< 100 nM	CCOc1cncc(-c2ccc(NC(=O)[C@](F)(CC)c3cc(NS(=O)(=O)C4CC4)ccn3)nc2)n1 [I-259, (S)-2-(4-(cyclopropanesulfonamido)pyridin-2-yl)-N-(5-(6-ethoxypyrazin-2-yl)pyridin-2-yl)-2-fluorobutanamide]
< 100 nM	CCOc1cncc(-c2cnc(C(=O)N[C@@H](CN3CCOCC3)c3cccc(NS(=O)(=O)C(F)F)c3)s2)n1 [I-247, (R)—N-(1-(3-((difluoromethyl)sulfonamido)phenyl)-2-morpholinoethyl)-5-(6-ethoxypyrazin-2-yl)thiazole-2-carboxamide]
< 100 nM	CCOc1cncc(-c2cnc(C(=O)NC(CCCN)c3cc(NS(=O)(=O)C4CC4)ccn3)s2)n1 (stereo not shown) [I-166, N-(4-amino-1-(4-(cyclopropanesulfonamido)pyridin-2-yl)butyl)-5-(6-ethoxypyrazin-2-yl)thiazole-2-carboxamide]
100 to 1000 nM	CCOc1cncc(-c2ccc(NC(=O)C(C)(C)n3ccc(NS(=O)(=O)C4CC4)n3)nc2)n1 [I-19, 2-(3-(cyclopropanesulfonamido)-1H-pyrazol-1-yl)-N-(5-(6-ethoxypyrazin-2-yl)pyridin-2-yl)-2-methylpropanamide]
< 100 nM	CCOc1cncc(-c2cnc(C(=O)N[C@@H](CCN3CC[C@H](F)C3)c3cc(NS(=O)(=O)C4CC4)ccn3)s2)n1 [I-129, N—((S)-1-(4-(cyclopropanesulfonamido)pyridin-2-yl)-3-((S)-3-fluoropyrrolidin-1-yl)propyl)-5-(6-ethoxypyrazin-2-yl)thiazole-2-carboxamide]
≥ 1000 nM	CC[C@H]1CCN(c2ncc(C(=O)NCc3cc(NS(=O)(=O)C4CC4)ccn3)nc2C)C1 [I-81]

SMILES	IC50
CCOc1cncc(-c2cnc(C(=O)N[C@H](CN3[C@@H]4COC[C@H]3C4)c3cc(NS(=O)(=O)C4CC4)ccn3)s2)n1 [I-115]	< 100 nM

From patent US12331046B2, “CTPS1 inhibitors and uses thereof” (Nimbus Clotho, Inc., priority 2020, dated 2025)
